Where two headings read alike, the source gives them in different places.
Assays:
[1] = tested on: MiaPaca human pancreatic carcinoma cells; experiment: Cell proliferation assay, Alamar Blue, MiaPaca; assay type: cell-based
Experimental: A representative cell-proliferation assay protocol using Alamar Blue dye (stored at 4° C., use 20 ul per well) is described hereafter.
c. Plate 4,000-5,000 cells per well in 100 μl of medium and seed into a 96-well plate according to the following plate layout. Add cell culture medium only to wells B10 to B12. Wells B1 to B9 have cells but no compound added.
d. Add 100 μl of 2× drug dilution to each well in a concentration shown in the plate layout above. At the same time, add 100 μl of media into the control wells (wells B10 to B12). Total volume is 200 μl/well.
e. Incubate four (4) days at 37° C., 5% CO2 in a humidified incubator.
f. Add 20 μl Alamar Blue reagent to each well.
g. Incubate for four (4) hours at 37° C., 5% CO2 in a humidified incubator.
h. Record fluorescence at an excitation wavelength of 544 nm and emission wavelength of 590 nm using a microplate reader.
In the assays, cells are cultured with a test compound for approximately four days, the dye then is added to the cells and fluorescence of […] dye is detected after approximately four hours. Different types of cells can be utilized in the assays (e.g., HCT-116 human colorectal carcinoma cells, PC-3 human prostatic cancer cells and MiaPaca human pancreatic carcinoma cells). Anti-proliferative effects of representative compounds are provided hereafter.

[2] = tested on: HCT-116 human colorectal carcinoma cells; experiment: Cell proliferation assay, Alamar Blue, HCT-116; assay type: cell-based;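 note: cells exposed to compound for about 4 days, then Alamar Blue added and fluorescence read after about 4 h, medium-only wells as control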
[3] = molecular target: PARP (Homo sapiens (Human), UniProt P09874); experiment: PARP assay (chemiluminescent PARP assay kit, Trevigen); assay type: biochemical; settings: for inhibition at 20 µM: read-out: PARP % inhib @ 20 uM
Sequence of PARP (P09874 whole entry): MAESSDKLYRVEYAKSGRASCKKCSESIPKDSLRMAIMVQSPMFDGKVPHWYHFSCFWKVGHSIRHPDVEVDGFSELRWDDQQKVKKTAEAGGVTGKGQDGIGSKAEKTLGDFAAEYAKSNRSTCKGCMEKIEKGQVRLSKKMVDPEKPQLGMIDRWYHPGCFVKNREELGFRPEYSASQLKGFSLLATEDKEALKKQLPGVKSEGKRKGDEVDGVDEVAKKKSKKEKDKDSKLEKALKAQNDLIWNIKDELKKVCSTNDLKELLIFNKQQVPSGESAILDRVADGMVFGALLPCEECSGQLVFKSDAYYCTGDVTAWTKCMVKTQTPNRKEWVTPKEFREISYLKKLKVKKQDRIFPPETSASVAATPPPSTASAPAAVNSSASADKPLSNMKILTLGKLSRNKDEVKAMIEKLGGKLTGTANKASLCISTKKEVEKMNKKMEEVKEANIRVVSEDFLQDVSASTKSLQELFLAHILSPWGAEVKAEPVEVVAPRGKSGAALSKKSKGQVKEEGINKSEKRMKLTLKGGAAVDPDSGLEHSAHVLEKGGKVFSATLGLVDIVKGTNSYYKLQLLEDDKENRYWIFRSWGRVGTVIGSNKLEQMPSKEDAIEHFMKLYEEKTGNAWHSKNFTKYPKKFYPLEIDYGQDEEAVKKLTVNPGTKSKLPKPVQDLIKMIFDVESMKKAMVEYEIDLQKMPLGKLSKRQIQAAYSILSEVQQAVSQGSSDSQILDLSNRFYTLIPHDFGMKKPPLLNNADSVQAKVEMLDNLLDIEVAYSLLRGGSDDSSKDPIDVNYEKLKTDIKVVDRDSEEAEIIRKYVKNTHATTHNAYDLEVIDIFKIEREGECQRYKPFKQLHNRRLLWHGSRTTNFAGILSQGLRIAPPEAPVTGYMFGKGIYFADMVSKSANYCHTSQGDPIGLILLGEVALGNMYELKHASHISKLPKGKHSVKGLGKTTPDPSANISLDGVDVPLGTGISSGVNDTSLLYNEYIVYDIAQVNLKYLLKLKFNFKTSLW
Experimental: Modulatory activity of compounds described herein was assessed in vitro in cell-free CK2 assays. Modulatory activity of compounds described herein also are assessed in vitro in cell-free PARP assays. These assays are described hereafter.
PARP assays are conducted using a chemiluminescent PARP assay kit (Trevigen). Briefly, reactions are performed in Histone-coated strip wells, by adding 10 microliters test compound dissolved in 1×PARP Buffer (prepared by mixing 20×PARP buffer diluted with high-purity water) and 15 microliters diluted PARP-HSA enzyme (diluted in 1× PARP buffer, 0.1 unit per well) to 25 microliters PARP cocktail (prepared from 10×PARP cocktail and 10× activated DNA, both 2.5 microliters per well and 20 microliters per well of 1×PARP buffer). The reactions are incubated at ambient temperature for 60 minutes, then the liquid was removed. After washing the wells four times with PBS (200 ul), 50 microliters of STREP-HRP (Horseradish Peroxidase) solution (diluted 500-fold in 1× Strep-Diluent) was added and the reactions were allowed to incubate for 30 minutes at ambient temperature. The liquid was removed and, after washing the wells four times with PBS (200 ul), 50 microliters each of PeroxyGlo A and B (Chemiluminescent Horseradish Peroxidase substrates) are added and the resulting chemiluminescence quantified on the SpectraMax M5 plate reader.

[4] = HCT-116, Table 16, second HCT-116 column
[5] = HCT-116, Table 16, first HCT-116 column
[6] = 1 uM, Table 12, read-out: PARP % inhib @ 1 uM

IC50 ([1]; MIA PaCa-2, Table 16) [µM] | IC50 [2, 4] [µM] | SMILES | also measured
> 10 | > 10 | CNC(=O)Cc1cccc(Nc2nc3cc(C(=O)O)ccc3c3sccc23)c1 | –
> 10 | > 10 | CNS(=O)(=O)c1cccc(Nc2nc3cc(C(=O)O)ccc3c3sccc23)c1 | –
> 10 | > 10 | O=C(O)c1ccc2c(c1)nc(Nc1cccc(Cl)c1F)c1ccsc12 | –
– | – | CN(C)CCNc1nc2cc(C(=O)O)ccc2c2cnc(NC3CC3)nc12 [drawing 1100] | IC50 ([1]; MIA PaCa-2, Table 18): > 50 µM
> 10 | > 10 | O=C(O)c1ccc2c(c1)nc(Nc1ccc3cc[nH]c3c1)c1ccsc12 | –
> 10 | > 10 | Fc1cc(Cl)cc(Nc2nc3cc(-c4nnn[nH]4)ccc3c3sccc23)c1 | –
– | – | Nc1ncc2c(n1)c(NC1CC1)nc1cc(C(=O)O)ccc12 [drawing 1102] | IC50 ([1]; MIA PaCa-2, Table 18): > 50 µM; IC50 ([2]; HCT-116, Table 18): > 10 µM
> 10 | > 10 | O=C(O)c1ccc2c(c1)nc(Nc1ccc3[nH]ccc3c1)c1ccsc12 | –
9.44 | > 10 | O=C(O)c1ccc2c(c1)nc(Nc1cccc(I)c1)c1ccsc12 | –
> 10 | > 10 | O=C(NCc1cccnc1)c1cccc(Nc2nc3cc(-c4nnn[nH]4)ccc3c3sccc23)c1 | –
– | – | COC(=O)c1ccc2c(c1)nc(NC1CC1)c1nc(SC)ncc12 [drawing 1099] | IC50 ([1]; MIA PaCa-2, Table 18): > 50 µM
> 10 | > 10 | N#Cc1cc(F)cc(Nc2nc3cc(C(=O)O)ccc3c3sccc23)c1 | –
> 10 | > 10 | Cc1cc(CNC(=O)c2cccc(Nc3nc4cc(-c5nnn[nH]5)ccc4c4sccc34)c2)no1 | –
– | – | O=C(O)c1ccc2c(c1)nc(NCc1cccnc1)c1nc(NC3CC3)ncc12 [drawing 1083] | IC50 ([1]; MIA PaCa-2, Table 18): 13.8 µM; IC50 ([2]; HCT-116, Table 18): > 10 µM
> 10 | > 10 | O=C(O)c1ccc2c(c1)nc(Nc1cccc(Br)c1)c1ccsc12 | –
> 10 | > 10 | COCCNC(=O)c1cccc(Nc2nc3cc(-c4nnn[nH]4)ccc3c3sccc23)c1 | –
> 10 | > 10 | C#Cc1cccc(Nc2nc3cc(-c4nnn[nH]4)ccc3c3sccc23)c1 | –
> 10 | > 10 | CCOc1cccc(Nc2nc3cc(C(=O)O)ccc3c3sccc23)c1 | –
> 10 | – | O=C(O)c1ccc2c(c1)nc(Nc1ccc(F)c(Cl)c1)c1ccsc12 | IC50 [2, 5]: > 10 µM
> 10 | – | O=C(O)c1ccc2c(c1)nc(Nc1cccc(-c3ccccc3)c1)c1ccsc12 | –
> 10 | > 10 | CC(=O)N1CCN(C(=O)c2cccc(Nc3nc4cc(-c5nnn[nH]5)ccc4c4sccc34)c2)CC1 | –
> 10 | > 10 | Brc1cccc(Nc2nc3cc(-c4nnn[nH]4)ccc3c3sccc23)c1 | –
> 10 | > 10 | O=C(O)c1ccc2c(c1)nc(Nc1cc(F)cc(C(F)(F)F)c1)c1ccsc12 | –

IC50 ([1]; MIA PaCa-2, Table 16) [µM] | IC50 [2, 4] [µM] | SMILES | also measured
> 10 | > 10 | O=C(O)c1ccc2c(c1)nc(Nc1cc(F)cc(Cl)c1)c1ccsc12 | –
> 10 | > 10 | O=C(c1cccc(Nc2nc3cc(-c4nnn[nH]4)ccc3c3sccc23)c1)N1CCOCC1 | –
> 10 | > 10 | CN(C)C(=O)c1cccc(Nc2nc3cc(-c4nnn[nH]4)ccc3c3sccc23)c1 | –
> 10 | > 10 | Fc1cc(F)cc(Nc2nc3cc(-c4nnn[nH]4)ccc3c3sccc23)c1 | –
> 10 | > 10 | O=C(O)c1cc(F)cc(Nc2nc3cc(C(=O)O)ccc3c3sccc23)c1 | –
– | – | O=c1c2ccccc2c2ccc(-c3nnn[nH]3)cc2n1CCCO | inhibition at 1 µM ([3]; at 1 μM, Table 10, read-out: PARP Inhibition %): 33%
> 10 | – | CC(C)(C)OC(=O)CCNC(=O)c1cccc(Nc2nc3cc(-c4nnn[nH]4)ccc3c3sccc23)c1 | –
> 10 | > 10 | O=C(O)c1ccc2c(c1)nc(Nc1cccc(F)c1F)c1ccsc12 | –
> 10 | – | O=C(O)c1cccc(Nc2nc3cc(-c4nnn[nH]4)ccc3c3sccc23)c1 | –
> 10 | > 10 | COC(=O)CNC(=O)c1cccc(Nc2nc3cc(-c4nnn[nH]4)ccc3c3sccc23)c1 | –
– | – | N#Cc1ccc2c(c1)[nH]c(=O)c1ccsc12 | inhibition at 1 µM [3, 6]: 51%; IC50 ([3]; Table 12): 500 nM
> 10 | > 10 | O=C(O)c1ccc2c(c1)nc(Nc1cccc(C(F)(F)F)c1)c1ccsc12 | –
> 10 | 0.83 | O=C(O)c1ccc2c(c1)nc(Nc1ccc(F)c(F)c1)c1ccsc12 | –
– | – | O=c1[nH]c2cc(CO)ccc2c2sccc12 | inhibition at 1 µM [3, 6]: 74%; IC50 ([3]; Table 12): 400 nM
– | – | COC(=O)CNC(=O)c1ccc2c(c1)[nH]c(=O)c1ccsc12 | inhibition at 1 µM [3, 6]: 47%; inhibition at 20 µM ([3]; Table 12): 93%
– | – | O=c1[nH]c2cc(-c3nn[nH]n3)ccc2c2sccc12 | inhibition at 1 µM [3, 6]: 39%
> 10 | > 10 | CCc1cccc(Nc2nc3cc(C(=O)O)ccc3c3sccc23)c1 | –
– | – | O=C(O)c1ccc2c(c1)nc(NCc1ccccc1)c1nc(NC3CC3)ncc12 [drawing 1084] | IC50 ([1]; MIA PaCa-2, Table 18): 12.9 µM; IC50 ([2]; HCT-116, Table 18): > 10 µM
– | – | O=C(O)CCNC(=O)c1ccc2c(c1)[nH]c(=O)c1ccsc12 | inhibition at 1 µM [3, 6]: 35%; inhibition at 20 µM ([3]; Table 12): 95%
> 10 | > 10 | O=C(O)c1ccc2c(c1)nc(Nc1cc(F)ccc1F)c1ccsc12 | –
– | – | O=C(O)c1ccc2c(c1)nc(NCc1ccccc1)c1ccncc12 [drawing 1020] | IC50 ([1]; MIA PaCa-2, Table 18): 31.2 µM; IC50 ([2]; HCT-116, Table 18): > 10 µM
> 10 | > 10 | O=C(O)c1ccc2c(c1)nc(Nc1cccc(S(=O)(=O)NC3CC3)c1)c1ccsc12 | –
– | – | O=C(Nc1nccs1)c1ccc2c(c1)[nH]c(=O)c1ccsc12 | inhibition at 1 µM [3, 6]: 0%; inhibition at 20 µM ([3]; Table 12): 52%

IC50 ([1]; MIA PaCa-2, Table 16) [µM] | IC50 [2, 4] [µM] | SMILES | also measured
– | – | O=C(NCc1ccccc1)c1ccc2c(c1)[nH]c(=O)c1ccsc12 | inhibition at 1 µM [3, 6]: 36%
> 10 | > 10 | CN(C)CCNC(=O)c1cccc(Nc2nc3cc(-c4nnn[nH]4)ccc3c3sccc23)c1 | –
> 10 | – | COc1cccc(Nc2nc3cc(C(=O)O)ccc3c3sccc23)c1 | IC50 [2, 5]: > 10 µM
– | – | O=C(NCc1ccccn1)c1ccc2c(c1)[nH]c(=O)c1ccsc12 | inhibition at 1 µM [3, 6]: 71%; IC50 ([3]; Table 12): 1000 nM
– | – | COc1ccc(NC(=O)c2ccc3c(c2)[nH]c(=O)c2ccsc23)c(OC)c1 | inhibition at 1 µM [3, 6]: 0%; inhibition at 20 µM ([3]; Table 12): 32%
– | – | CN(C)c1ncc2c(n1)c(Nc1cccc(Cl)c1)nc1cc(C(=O)O)ccc12 | IC50 ([1]; MIA PaCa-2, Table 18): > 50 µM
– | – | COc1ccccc1NC(=O)c1ccc2c(c1)[nH]c(=O)c1ccsc12 | inhibition at 1 µM [3, 6]: 0%; inhibition at 20 µM ([3]; Table 12): 24%
– | – | O=C(c1ccc2c(c1)[nH]c(=O)c1ccsc12)N1CCOCC1 | inhibition at 1 µM [3, 6]: 82%; inhibition at 20 µM ([3]; Table 12): 95%; IC50 ([3]; Table 12): 400 nM
– | – | O=C(O)c1ccc2c(c1)nc(NC1CC1)c1ccncc12 [drawing 1097] | IC50 ([1]; MIA PaCa-2, Table 18): 26.5 µM; IC50 ([2]; HCT-116, Table 18): > 10 µM
– | – | O=C(NCCN1CCOCC1)c1ccc2c(c1)[nH]c(=O)c1ccsc12 | inhibition at 1 µM [3, 6]: 77%; inhibition at 20 µM ([3]; Table 12): 96%; IC50 ([3]; Table 12): 500 nM
– | – | O=C(NCCc1ccccn1)c1ccc2c(c1)[nH]c(=O)c1ccsc12 | inhibition at 1 µM [3, 6]: 55%; inhibition at 20 µM ([3]; Table 12): 83%; IC50 ([3]; Table 12): 1000 nM
> 10 | > 10 | Cc1cccc(Nc2nc3cc(C(=O)O)ccc3c3sccc23)c1 | –
– | – | O=C(NCCc1ccccc1)c1ccc2c(c1)[nH]c(=O)c1ccsc12 | inhibition at 1 µM [3, 6]: 64%; IC50 ([3]; Table 12): 500 nM
– | – | O=C(O)c1ccc2c(c1)[nH]c(=O)c1cc(Br)sc12 | inhibition at 1 µM [3, 6]: 39%; inhibition at 20 µM ([3]; Table 12): 84%
– | – | O=c1[nH]c2ccccc2c2sccc12 | inhibition at 20 µM ([3]; Table 12): 0%
– | – | NC(=O)c1ccc2c(c1)[nH]c(=O)c1ccsc12 | inhibition at 1 µM [3, 6]: 79%; IC50 ([3]; Table 12): 60 nM
– | – | CCOc1ncc2c(n1)c(NC1CC1)nc1cc(C(=O)O)ccc12 [drawing 1073] | IC50 ([1]; MIA PaCa-2, Table 18): > 50 µM; IC50 ([2]; HCT-116, Table 18): > 10 µM
– | – | Cc1cc(Nc2ncc3c(n2)c(Nc2ccc(F)c(Cl)c2)nc2cc(C(=O)O)ccc23)[nH]n1 [drawing 1093] | IC50 ([1]; MIA PaCa-2, Table 18): 18.2 µM; IC50 ([2]; HCT-116, Table 18): > 10 µM
– | – | O=C(c1ccc2c(c1)[nH]c(=O)c1ccsc12)N1CCNCC1 | inhibition at 1 µM [3, 6]: 96%; IC50 ([3]; Table 12): 30 nM
> 10 | > 10 | NS(=O)(=O)c1cccc(Nc2nc3cc(-c4nnn[nH]4)ccc3c3sccc23)c1 | –
– | – | COc1ccccc1CNC(=O)c1ccc2c(c1)[nH]c(=O)c1ccsc12 | inhibition at 1 µM [3, 6]: 27%
